Measured values taken from PubChem BioAssay AID2060622 (Molecular Pharmacology Branch, DTP, NCI, 2025).
pIC50: −log10 of the molar value. Values joined by “and” are separate entries in the source; they are usually repeats but may differ in a detail not shown here. Equal values may be shown once.

Test system: 242566-281-R-J2-PDC complex spheroid viability
Experiment: Anticancer human tumor 242566-281-R-J2-PDC patient-derived pancreatic carcinoma cell line growth inhibition [CLK]
Details: for viability, T/C: stronger effect = lower value
Method in brief: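 Multi-cell-type spheroids combined patient-derived tumor cells with HUVEC endothelial cells and human mesenchymal stem cells. Paired agents were dosed in half-log steps down from about clinical Cmax, or from 10 microM where Cmax was unknown.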

[1] = curve of first compound, second compound 0.0316 µM
[2] = curve of first compound, second compound 0.1 µM
[3] = curve of first compound, second compound 0.316 µM
[4] = curve of first compound, second compound 1 µM
[5] = curve of first compound, second compound 3.16 µM
[6] = curve of first compound, second compound 10 µM
[7] = second compound 0.0316 µM, first compound 0.0316 µM
[8] = second compound 0.0316 µM, first compound 0.1 µM
[9] = second compound 0.0316 µM, first compound 0.316 µM
[10] = second compound 0.0316 µM, first compound 1 µM
[11] = second compound 0.0316 µM, first compound 3.16 µM
[12] = second compound 0.0316 µM, first compound 10 µM
[13] = second compound 0.1 µM, first compound 0.0316 µM
[14] = second compound 0.1 µM, first compound 0.1 µM
[15] = second compound 0.1 µM, first compound 0.316 µM
[16] = second compound 0.1 µM, first compound 1 µM
[17] = second compound 0.1 µM, first compound 3.16 µM
[18] = second compound 0.1 µM, first compound 10 µM
[19] = second compound 0.316 µM, first compound 0.0316 µM
[20] = second compound 0.316 µM, first compound 0.1 µM
[21] = second compound 0.316 µM, first compound 0.316 µM
[22] = second compound 0.316 µM, first compound 1 µM
[23] = second compound 0.316 µM, first compound 3.16 µM
[24] = second compound 0.316 µM, first compound 10 µM
[25] = second compound 1 µM, first compound 0.0316 µM
[26] = second compound 1 µM, first compound 0.1 µM
[27] = second compound 1 µM, first compound 0.316 µM
[28] = second compound 1 µM, first compound 1 µM
[29] = second compound 1 µM, first compound 3.16 µM
[30] = second compound 1 µM, first compound 10 µM
[31] = second compound 3.16 µM, first compound 0.0316 µM
[32] = second compound 3.16 µM, first compound 0.1 µM
[33] = second compound 3.16 µM, first compound 0.316 µM
[34] = second compound 3.16 µM, first compound 1 µM
[35] = second compound 3.16 µM, first compound 3.16 µM
[36] = second compound 3.16 µM, first compound 10 µM
[37] = second compound 10 µM, first compound 0.0316 µM
[38] = second compound 10 µM, first compound 0.1 µM
[39] = second compound 10 µM, first compound 0.316 µM
[40] = second compound 10 µM, first compound 1 µM
[41] = second compound 10 µM, first compound 3.16 µM
[42] = second compound 10 µM, first compound 10 µM
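Also: spheroids exposed to compounds for 7 days before readout.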
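For viability, T/C in this document: 100% = DMSO vehicle control wells.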

`C=C(F)C(=O)N1CCN(c2nc(OCC3CCCN3C)nc3c2CCN(c2cccc4cccc(Cl)c24)C3)CC1CC#N` (stereo not given) + CN1CCN(c2cc(C(=O)Nc3cc4cc(-c5cnn(C)c5)ccc4cn3)ccn2)CC1 showed a pIC50 [1] of 5.30, a pIC50 [2] of 5.37 and a pIC50 [3] of over 7.50. The pIC50 [4] was over 7.50, the pIC50 [5] was over 7.50 and the pIC50 [6] was over 7.50. It also gave a viability, T/C [7] of 84.6%, a viability, T/C [8] of 115% and a viability, T/C [9] of 104%. It also gave a viability, T/C [10] of 114%, a viability, T/C [11] of 82.7% and a viability, T/C [12] of 0.15%. The viability, T/C [13] was 103%, the viability, T/C [14] was 95.9% and the viability, T/C [15] was 90.9%. The viability, T/C [16] was 90.2%, the viability, T/C [17] was 67.7% and the viability, T/C [18] was 0.87%. The viability, T/C [19] was 42.9%, the viability, T/C [20] was 38.7% and the viability, T/C [21] was 50.4%. The viability, T/C [22] was 41.3%, the viability, T/C [23] was 25.2% and the viability, T/C [24] was 0.12%. It also gave a viability, T/C [25] of 4.94%, a viability, T/C [26] of 4.71% and a viability, T/C [27] of 4.65%. The viability, T/C [28] was 4.68%, the viability, T/C [29] was 3.14% and the viability, T/C [30] was 0.13%. The viability, T/C [31] was 7.96%, the viability, T/C [32] was 8.51% and the viability, T/C [33] was 7.38%. The viability, T/C [34] was 6.75%, the viability, T/C [35] was 4.99% and the viability, T/C [36] was 0.12%. For the same compound, the viability, T/C [37] was 2.22%, the viability, T/C [38] was 2.75% and the viability, T/C [39] was 2.19%. It also gave a viability, T/C [40] of 1.43%, a viability, T/C [41] of 0.37% and a viability, T/C [42] of 0.24%.

`C=CC(=O)Nc1cc(Nc2nccc(-c3cn(C)c4ccccc34)n2)c(OC)cc1N(C)CCN(C)C` was tested, and the viability, T/C (compound 0.000949 µM) was 98.9% and 87.5%, the viability, T/C (compound 0.003 µM) was 97.1% and 95.4% and the viability, T/C (compound 0.00949 µM) was 94.8% and 88.7%. For the same compound, the viability, T/C (compound 0.03 µM) was 95.2% and 96.2%, the viability, T/C (compound 0.0949 µM) was 95.1% and 107% and the viability, T/C (compound 0.3 µM) was 69.7% and 97.1%. The pIC50 (curve of compound) was under 6.52.

With `COc1ccc([C@@H](O)c2cc(-c3ncnc4cc(N5CCOCC5)ccc34)c(F)cc2Cl)nn1` + CNC(=O)c1ccc(Nc2nc(OC3CCCC3)c3c(-c4ccc5nc(C)oc5c4)c[nH]c3n2)c(OC)c1 the pIC50 [1] was under 5.00, the pIC50 [2] was under 5.00 and the pIC50 [3] was under 5.00. It also gave a pIC50 [4] of 5.72, a pIC50 [5] of 6.89 and a pIC50 [6] of over 7.50. The viability, T/C [7] was 106%, the viability, T/C [8] was 96.5% and the viability, T/C [9] was 89.5%. For the same compound, the viability, T/C [10] was 141%, the viability, T/C [11] was 92.4% and the viability, T/C [12] was 66.4%. For the same compound, the viability, T/C [13] was 88.9%, the viability, T/C [14] was 103% and the viability, T/C [15] was 89.7%. The viability, T/C [16] was 102%, the viability, T/C [17] was 89.2% and the viability, T/C [18] was 69.9%. It also gave a viability, T/C [19] of 91.7%, a viability, T/C [20] of 85.7% and a viability, T/C [21] of 72%. The viability, T/C [22] was 81.1%, the viability, T/C [23] was 76.9% and the viability, T/C [24] was 55%. For the same compound, the viability, T/C [25] was 69.2%, the viability, T/C [26] was 62.6% and the viability, T/C [27] was 57.7%. For the same compound, the viability, T/C [28] was 51.6%, the viability, T/C [29] was 53.1% and the viability, T/C [30] was 36.3%. It also gave a viability, T/C [31] of 54.5%, a viability, T/C [32] of 51.9% and a viability, T/C [33] of 47.2%. The viability, T/C [34] was 39.9%, the viability, T/C [35] was 40.2% and the viability, T/C [36] was 33.5%. The viability, T/C [37] was 51.3%, the viability, T/C [38] was 47.5% and the viability, T/C [39] was 46.5%. The viability, T/C [40] was 43.2%, the viability, T/C [41] was 41.9% and the viability, T/C [42] was 32.5%.

For `C=CC(=O)N1CCN(c2nc(=O)n(-c3c(C)ccnc3C(C)C)c3nc(-c4c(O)cccc4F)c(F)cc23)C(C)C1` (stereo not given) + CN1CCN(c2cc(C(=O)Nc3cc4cc(-c5cnn(C)c5)ccc4cn3)ccn2)CC1, the pIC50 [1] was under 5.00, the pIC50 [2] was under 5.00 and the pIC50 [3] was over 7.50. The pIC50 [4] was over 7.50, the pIC50 [5] was over 7.50 and the pIC50 [6] was over 7.50. For the same compound, the viability, T/C [7] was 113%, the viability, T/C [8] was 105% and the viability, T/C [9] was 102%. The viability, T/C [10] was 117%, the viability, T/C [11] was 103% and the viability, T/C [12] was 72.9%. For the same compound, the viability, T/C [13] was 106%, the viability, T/C [14] was 94.3% and the viability, T/C [15] was 81.6%. The viability, T/C [16] was 109%, the viability, T/C [17] was 105% and the viability, T/C [18] was 67.5%. It also gave a viability, T/C [19] of 47.2%, a viability, T/C [20] of 47.3% and a viability, T/C [21] of 40.8%. It also gave a viability, T/C [22] of 45.2%, a viability, T/C [23] of 48.2% and a viability, T/C [24] of 23.4%. The viability, T/C [25] was 5.06%, the viability, T/C [26] was 5.31% and the viability, T/C [27] was 6.97%. It also gave a viability, T/C [28] of 9.26%, a viability, T/C [29] of 11.1% and a viability, T/C [30] of 6.36%. The viability, T/C [31] was 7.67%, the viability, T/C [32] was 8.25% and the viability, T/C [33] was 11.1%. It also gave a viability, T/C [34] of 11.7%, a viability, T/C [35] of 11.6% and a viability, T/C [36] of 8.7%. The viability, T/C [37] was 2.18%, the viability, T/C [38] was 2.58% and the viability, T/C [39] was 2.81%. For the same compound, the viability, T/C [40] was 4.46%, the viability, T/C [41] was 4.9% and the viability, T/C [42] was 2.7%.

Work on `CC(C)CC(NC(=O)C(Cc1ccccc1)NC(=O)c1cnccn1)B(O)O` (stereo not given) + CN1CCN(c2cc(C(=O)Nc3cc4cc(-c5cnn(C)c5)ccc4cn3)ccn2)CC1 yielded a pIC50 [1] of 8.68, a pIC50 [2] of 8.70 and a pIC50 [3] of over 9.02. It also gave a pIC50 [4] of over 9.02, a pIC50 [5] of over 9.02 and a pIC50 [6] of over 9.02. The viability, T/C (second compound 0.0316 µM, first compound 0.000949 µM) was 103%, the viability, T/C (second compound 0.0316 µM, first compound 0.003 µM) was 25.5% and the viability, T/C (second compound 0.0316 µM, first compound 0.00949 µM) was 1.28%. It also gave a viability, T/C (second compound 0.0316 µM, first compound 0.03 µM) of 0.43%, a viability, T/C (second compound 0.0316 µM, first compound 0.0949 µM) of 0.27% and a viability, T/C (second compound 0.0316 µM, first compound 0.3 µM) of 0.23%. For the same compound, the viability, T/C (second compound 0.1 µM, first compound 0.000949 µM) was 98.8%, the viability, T/C (second compound 0.1 µM, first compound 0.003 µM) was 22.7% and the viability, T/C (second compound 0.1 µM, first compound 0.00949 µM) was 0.52%. It also gave a viability, T/C (second compound 0.1 µM, first compound 0.03 µM) of 0.43%, a viability, T/C (second compound 0.1 µM, first compound 0.0949 µM) of 0.39% and a viability, T/C (second compound 0.1 µM, first compound 0.3 µM) of 0.27%. It also gave a viability, T/C (second compound 0.316 µM, first compound 0.000949 µM) of 26.7%, a viability, T/C (second compound 0.316 µM, first compound 0.003 µM) of 2.24% and a viability, T/C (second compound 0.316 µM, first compound 0.00949 µM) of 0.29%. For the same compound, the viability, T/C (second compound 0.316 µM, first compound 0.03 µM) was 0.28%, the viability, T/C (second compound 0.316 µM, first compound 0.0949 µM) was 0.29% and the viability, T/C (second compound 0.316 µM, first compound 0.3 µM) was 0.51%. It also gave a viability, T/C (second compound 1 µM, first compound 0.000949 µM) of 5.2%, a viability, T/C (second compound 1 µM, first compound 0.003 µM) of 1.12% and a viability, T/C (second compound 1 µM, first compound 0.00949 µM) of 0.43%. It also gave a viability, T/C (second compound 1 µM, first compound 0.03 µM) of 0.31%, a viability, T/C (second compound 1 µM, first compound 0.0949 µM) of 0.26% and a viability, T/C (second compound 1 µM, first compound 0.3 µM) of 0.4%. For the same compound, the viability, T/C (second compound 3.16 µM, first compound 0.000949 µM) was 7.89%, the viability, T/C (second compound 3.16 µM, first compound 0.003 µM) was 1.95% and the viability, T/C (second compound 3.16 µM, first compound 0.00949 µM) was 0.39%. For the same compound, the viability, T/C (second compound 3.16 µM, first compound 0.03 µM) was 0.2%, the viability, T/C (second compound 3.16 µM, first compound 0.0949 µM) was 0.38% and the viability, T/C (second compound 3.16 µM, first compound 0.3 µM) was 0.8%. It also gave a viability, T/C (second compound 10 µM, first compound 0.000949 µM) of 1.93%, a viability, T/C (second compound 10 µM, first compound 0.003 µM) of 1.11% and a viability, T/C (second compound 10 µM, first compound 0.00949 µM) of 0.3%. It also gave a viability, T/C (second compound 10 µM, first compound 0.03 µM) of 0.44%, a viability, T/C (second compound 10 µM, first compound 0.0949 µM) of 0.26% and a viability, T/C (second compound 10 µM, first compound 0.3 µM) of 0.34%.
